Patent publication US11903945B2, “Methods of treating antipsychotic-induced weight gain with miricorilant” (Corcept Therapeutics Incorporated, priority 2019, dated 2024)
“And” between values parts separate entries of the source, which are not always exact repeats. Identical values can stand only once. “Also recorded” adds a separate entry of the source. Like-named read-outs stand apart in the source and are kept apart here.

How the values were obtained:
[1] = patients, cited from earlier work; for Mean body weight increase over a period of ten weeks: Allison et al., Am J. Psychiatry 1999
[2] = test system: tyrosine aminotransferase (TAT) in HepG2 cells; settings: HepG2 human liver hepatocellular carcinoma cell line; cited from earlier work
[3] = for Triglycerides increase from baseline on Day 8 / Triglycerides increase from baseline on Day 15: listed as miricorilant = MIRI 600 mg/day + OLZ, unit given in Table 1, not in Table 2; for Body weight increase from baseline, percent of baseline, day 8 / Body weight increase from baseline, percent of baseline, day 15: from Table 2 with Table 1 baselines
Procedure: The dose level tested in our Phase 1b trial was 600 mg/day.
A 2-week, single-center, double-blind, randomized, placebo-controlled study was conducted in healthy male subjects age 18-55 years with BMI between 18-25 kg/m^2 and a stable body weight (defined as the Day 1 pre-dose body weight to be within ±2.0% of screening body weight). […] Food was freely available to all subjects during the study. The difference in mean change in absolute body weight after administration of OLZ+PBO compared to OLZ+MIRI was evaluated using a repeated measures model with imputation applied to missing values.
(HOMA2-IR values were calculated from fasted glucose and insulin levels using the HOMA (HOMA2 Model) Calculator® application programming interface for SAS (Oxford University 2013, available at the website www.dtu.ox.ac.uk/homacalculator)).

progesterone receptor = molecular target: T1, progesterone receptor (Homo sapiens, UniProt P06401); settings: cited from earlier work
T1 sequence (P06401 1-933): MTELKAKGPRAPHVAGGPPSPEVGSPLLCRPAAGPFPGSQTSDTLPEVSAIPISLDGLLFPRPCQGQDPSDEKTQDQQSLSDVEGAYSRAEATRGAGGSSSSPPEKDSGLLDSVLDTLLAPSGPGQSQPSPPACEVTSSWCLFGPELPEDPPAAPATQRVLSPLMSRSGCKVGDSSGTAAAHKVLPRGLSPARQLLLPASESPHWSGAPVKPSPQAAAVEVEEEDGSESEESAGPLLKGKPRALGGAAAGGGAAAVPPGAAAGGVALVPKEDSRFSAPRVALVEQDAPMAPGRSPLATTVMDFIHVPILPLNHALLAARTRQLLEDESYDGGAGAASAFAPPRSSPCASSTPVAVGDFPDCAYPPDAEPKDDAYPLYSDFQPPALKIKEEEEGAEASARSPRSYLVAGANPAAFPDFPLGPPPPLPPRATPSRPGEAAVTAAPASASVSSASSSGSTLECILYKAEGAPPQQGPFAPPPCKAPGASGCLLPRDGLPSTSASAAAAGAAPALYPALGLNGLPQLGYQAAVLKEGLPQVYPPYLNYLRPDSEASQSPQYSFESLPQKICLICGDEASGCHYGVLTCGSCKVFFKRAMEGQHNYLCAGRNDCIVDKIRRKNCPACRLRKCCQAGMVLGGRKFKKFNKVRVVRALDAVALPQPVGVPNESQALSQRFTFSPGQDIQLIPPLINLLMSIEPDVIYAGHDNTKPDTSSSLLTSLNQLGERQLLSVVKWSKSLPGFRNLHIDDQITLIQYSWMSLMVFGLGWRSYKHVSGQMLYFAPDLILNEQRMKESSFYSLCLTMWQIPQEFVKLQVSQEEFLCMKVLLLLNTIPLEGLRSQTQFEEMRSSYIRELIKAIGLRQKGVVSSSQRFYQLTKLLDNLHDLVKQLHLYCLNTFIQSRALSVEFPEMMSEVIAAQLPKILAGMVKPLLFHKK

[4] = assay type: in vivo; settings: female rats; for Study day from which body weight reduction became statistically significant: treatment started Day 35
Procedure: On day 35, the rodents were randomized to 4 different interventions and remained on study until day 57. The four intervention groups were: OLZ+vehicle daily by oral gavage; OLZ+2 mg/kg/day miricorilant once daily; OLZ+1 mg/kg miricorilant twice daily; and OLZ+10 mg/kg/day miricorilant once daily. A fifth group, a vehicle-only group (n=12), was included as a control for the entirety of the 57 days.
Starting at week 6, either miricorilant (MIRI, 3 dosing regimens) or vehicle 2 was administered orally. […] The vehicle-only group was included as a control for the 8-week duration of the study. Efficacy was assessed based on body weight, food consumption, mortality, and clinical observations.
The articles were stored refrigerated between dosing.
Body weights were measured and recorded three times weekly during the acclimation period, every other day beginning on Day −1, and prior to termination on Day 57. Food consumption was measured and recorded daily beginning on Day −14. Body weights and food consumption were measured within 2 hours of the initial time on Day −1. Any changes in bodyweight greater than 15 grams (g) and changes in food consumption greater than 5 g were verified. Food jars were weighed twice for precision during food jar changes.

[5] = Hunt et al., Bioorg Med Chem Lett. 2012; cited from earlier work
[6] = olanzapine prescribing information; cited from earlier work
[7] = patients; doubled from 1.3±0.5 at baseline; Ebenbichler et al. 2003; cited from earlier work
[8] = (1 − (A/B)) × 100, MIRI 600 mg/day + OLZ vs placebo + OLZ, healthy male subjects
[9] = healthy male subjects, day not given, listed as miricorilant = olanzapine+miricorilant, listed as olanzapine = olanzapine+placebo
[10] = healthy male subjects, listed as miricorilant = MIRI 600 mg/day + OLZ 10 mg/day, listed as olanzapine = placebo + OLZ 10 mg/day
[11] = healthy male subjects, listed as olanzapine = placebo + OLZ 10 mg/day
[12] = healthy male subjects, listed as miricorilant = olanzapine+miricorilant, listed as olanzapine = olanzapine+placebo
[13] = Group 3: OLZ + miricorilant 1 mg/kg/dose BID
[14] = Group 4: OLZ + miricorilant 2 mg/kg/dose QD
[15] = Group 5: OLZ + miricorilant 10 mg/kg/dose QD
[16] = first week of miricorilant treatment with OLZ, P<0.01

## Cc1nc2n(c(=O)c1CCN1CCC(c3noc4cc(F)ccc34)CC1)CCCC2 [risperidone]
[1]; Allison et al. 2001
  Weight gained over 8-12 weeks: 2 to 3 kg

## CN1CCN(C2=Nc3cc(Cl)ccc3Nc3ccccc32)CC1 [clozapine]
[1]
  Mean body weight increase over a period of ten weeks: 4.45 kg

## CC#C[C@]1(O)CC[C@H]2[C@@H]3CCC4=CC(=O)CCC4=C3[C@@H](c3ccc(N(C)C)cc3)C[C@@]21C [mifepristone]
[2]
  Effect on activity of tyrosine aminotransferase (TAT) in HepG2 cells: decreases

## OCCOCCN1CCN(C2=Nc3ccccc3Sc3ccccc32)CC1 [quetiapine]
[1]; Allison et al. 2001
  Weight gained after treatment for a "short time": about 3 kg

## O=C1NCCN1CCN1CCC(c2cn(-c3ccc(F)cc3)c3ccc(Cl)cc23)CC1 [sertindole]
[1]
  Mean body weight increase over a period of ten weeks: 2.92 kg

## O=c1[nH]c(=O)c(Cc2cccc(C(F)(F)F)c2)c([C@H]2CC[C@H](c3ccccc3)CC2)[nH]1 [miricorilant, (E)-6-(4-Phenylcyclohexyl)-5-(3-trifluoromethylbenzyl)-1H-pyrimidine-2,4-dione]
[3]; [8]
  % reduction in OLZ-induced increase: HOMA2-IR, Day 8: 38%
  % reduction in OLZ-induced increase: HOMA2-IR, Day 15: 39%
  % reduction in OLZ-induced increase: body weight, Day 8: 25%
  % reduction in OLZ-induced increase: body weight, Day 15: 22%
  % reduction in OLZ-induced increase: insulin, Day 8: 38%
  % reduction in OLZ-induced increase: insulin, Day 15: 39%
  % reduction in OLZ-induced increase: triglycerides, Day 8: 49%
  % reduction in OLZ-induced increase: triglycerides, Day 15: 45%
[3]; OLZ+MIRI vs OLZ+PBO, MMRM, P=0.017, 95% CI [−1.94, −0.19], healthy male subjects
  Difference in weight gain between treatment groups on day 15: -1.07 kg
[3]; OLZ+MIRI vs OLZ+PBO, MMRM, P=0.044, 95% CI [−1.77, −0.02], healthy male subjects
  Difference in weight gain between treatment groups on day 8: -0.9 kg
[3]; OLZ+MIRI vs OLZ+PBO, P<0.001, healthy male subjects
  Difference in triglyceride increase on day 8: -0.53 mmol/L
[3]; OLZ+MIRI vs OLZ+PBO, P=0.007, healthy male subjects
  Difference in HOMA2-IR on day 15: −0.47
[3]; OLZ+MIRI vs OLZ+PBO, P=0.012, healthy male subjects
  Difference in HOMA2-IR on day 8: −0.44
[3]; OLZ+MIRI vs OLZ+PBO, P=0.013, healthy male subjects
  Difference in plasma insulin increase on day 8: −3.49 mIU/L
[3]; OLZ+MIRI vs OLZ+PBO, P=0.057, healthy male subjects
  Difference in triglyceride increase on day 15: -0.28 mmol/L
[3]; [9]
  HOMA2-IR level relative to baseline: less than 2 fold
  Insulin resistance (HOMA2-IR) increase from baseline, percent: about 90%
[3]; [10]
  Body weight increase from baseline on Day 8: 2.6 kg and 2.59 kg
  Body weight increase from baseline on Day 15: 3.9 kg and 3.91 kg
  HOMA2-IR increase from baseline on Day 8: 0.71
  HOMA2-IR increase from baseline on Day 15: 0.74
  Insulin increase from baseline on Day 8: 5.65 mIU/L
  Insulin increase from baseline on Day 15: 5.91 mIU/L
[3]; [11]
  Triglycerides increase from baseline on Day 8: 0.56 mmol/L
  Triglycerides increase from baseline on Day 15: 0.34 mmol/L
[3]; [12]
  Insulin increase from baseline, percent, day 8: about 92%
  Insulin increase from baseline, percent, day 15: 97%
  Triglycerides increase from baseline, percent, day 8: about 60%
  Triglycerides increase from baseline, percent, day 15: 37%
  Body weight increase from baseline, percent of baseline, day 8: about 3.6%
  Body weight increase from baseline, percent of baseline, day 15: 5.4%
[3]; human, in vivo
  ALT increase from baseline, percent, day 7: 152%
  ALT increase from baseline, percent, day 12: 528%
  AST increase from baseline, percent, day 7: 71%
  AST increase from baseline, percent, day 12: 192%
  Difference in ALT levels between treatment arms on day 12: −49.99 IU/L
  Difference in AST levels between groups on day 12: −32.24 IU/L
  Tolerability of the dose: very well tolerated
[3]; printed as between PBO and OLZ, P=0.007, healthy male subjects
  Difference in plasma insulin increase on day 15: 3.74 mIU/L
Progesterone receptor
  Affinity for the progesterone receptor: without affinity
[4]; Group 3: 1 mg/kg/dose BID
  Study day from which body weight reduction became statistically significant: 36
[4]; [13]
  Body weight reduction at Day 57 vs olanzapine control Group 2 ([…] g): 13%
  Least Squares (LS) mean body weight at Day 57: 268 g
[4]; Group 3: OLZ + miricorilant 1 mg/kg/dose BID oral, Days 35-57
  Group mean body weight at Day 57: 269 g
[4]; Group 4: 2 mg/kg/dose QD
  Study day from which body weight reduction became statistically significant: 38
[4]; [14]
  Body weight reduction at Day 57 vs olanzapine control Group 2 ([…] g): 12%
  Least Squares (LS) mean body weight at Day 57: 272 g
  Loss compared with basal body weight (vehicle-only control) at the end of the study: no significant loss; also recorded: no reduction
[4]; Group 4: OLZ + miricorilant 2 mg/kg/dose QD oral, Days 35-57
  Group mean body weight at Day 57: 272 g
[4]; Group 5: 10 mg/kg/dose QD
  Study day from which body weight reduction became statistically significant: 36
[4]; [15]
  Body weight reduction at Day 57 vs olanzapine control Group 2 ([…] g): 17%
  Least Squares (LS) mean body weight at Day 57: 259 g
[4]; Group 5: OLZ + miricorilant 10 mg/kg/dose QD oral, Days 35-57
  Group mean body weight at Day 57: 258 g
[4]; all three miricorilant dose regimens with OLZ
  Food consumption by the end of the study: returned to vehicle-only levels
[4]; days 35-57, all three miricorilant regimens with OLZ, p<0.05
  Decrease in weight compared to the OLZ+vehicle group: 12-17%
[4]; [16]
  Food consumption lower compared to olanzapine-only animals: 16%-23%
  Food consumption lower compared to vehicle-only controls: 13%-20%
[4]; miricorilant 1 mg/kg BID, 2 or 10 mg/kg QD with OLZ, Days 35-57
  Mortality: no mortalities
[4]; oral, all three dose regimens, within first week of treatment (Week 6), maintained
  Effect on olanzapine-induced body weight gains and food consumption increases: completely abrogated
[5]
  Effect on olanzapine-induced weight gain in rats: prevent olanzapine-induced weight gain

## Cc1cc2c(s1)Nc1ccccc1N=C2N1CCN(C)CC1 [olanzapine, reference compound]
[1]; Allison et al. 2001
  Weight gained after about 40 weeks of administration: 7 to 8 kg
[3]; [10]
  Body weight increase from baseline on Day 8: 3.5 kg and 3.49 kg
  Body weight increase from baseline on Day 15: 5.0 kg and 4.99 kg
  HOMA2-IR increase from baseline on Day 8: 1.15
  Insulin increase from baseline on Day 8: 9.14 mIU/L
  Insulin increase from baseline on Day 15: 9.65 mIU/L
[3]; [11]
  Triglycerides increase from baseline on Day 8: 1.09 mmol/L
  Triglycerides increase from baseline on Day 15: 0.62 mmol/L
[3]; [12]
  Insulin increase from baseline, percent, day 15: 127%
  Triglycerides increase from baseline, percent, day 8: 115%
  Triglycerides increase from baseline, percent, day 15: 65%
  Body weight increase from baseline, percent of baseline, day 8: 4.9%
  Body weight increase from baseline, percent of baseline, day 15: 6.9%
[3]; male, human, in vivo, 14 days
  Number of participants who discontinued the study due to elevated liver enzymes: 5
[6]
  Adult patients with triglyceride increases of ≥50 mg/dL at 12 weeks: ~40%
  Adult patients with triglyceride increases of ≥50 mg/dL at 48 weeks: more than 60%
[7]
  HOMA-IR after 8 weeks of olanzapine treatment: 2.6±1.4 mmol/mU·L
